In assay [1] the target is Tyrosine-protein kinase BTK (Homo sapiens) (UniProt Q06187). The assay is described as follows: Inhibition of human BTK at 1.82 nM by HotSpot assay relative to control.
The target in assay [2] is T1, Serine/threonine-protein kinase Chk1 (Homo sapiens) (UniProt O14757).
T1 sequence (whole entry): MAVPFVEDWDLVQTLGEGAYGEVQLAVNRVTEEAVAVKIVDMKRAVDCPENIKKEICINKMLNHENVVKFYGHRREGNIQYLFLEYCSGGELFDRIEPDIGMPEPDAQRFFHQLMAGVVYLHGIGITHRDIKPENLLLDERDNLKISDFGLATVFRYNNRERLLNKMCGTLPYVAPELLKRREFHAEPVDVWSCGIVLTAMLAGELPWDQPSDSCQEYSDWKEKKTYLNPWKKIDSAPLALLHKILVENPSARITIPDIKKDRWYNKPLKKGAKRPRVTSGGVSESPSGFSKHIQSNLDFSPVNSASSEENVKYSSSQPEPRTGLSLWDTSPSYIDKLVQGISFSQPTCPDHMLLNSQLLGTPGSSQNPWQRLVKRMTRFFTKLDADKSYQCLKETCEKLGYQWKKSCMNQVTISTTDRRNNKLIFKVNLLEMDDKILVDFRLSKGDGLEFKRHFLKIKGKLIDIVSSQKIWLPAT
As to the kind of experiment: Inhibition of human CHK1 at 1.82 nM by HotSpot assay relative to control.

In assay [3] the target is Insulin receptor-related protein (Homo sapiens) (UniProt P14616). The assay is described as follows: Inhibition of human IRR at 1.82 nM by HotSpot assay relative to control.
Assay [4] deals with T2, Tyrosine-protein kinase ITK/TSK (Homo sapiens) (UniProt Q08881).
T2 sequence (whole entry): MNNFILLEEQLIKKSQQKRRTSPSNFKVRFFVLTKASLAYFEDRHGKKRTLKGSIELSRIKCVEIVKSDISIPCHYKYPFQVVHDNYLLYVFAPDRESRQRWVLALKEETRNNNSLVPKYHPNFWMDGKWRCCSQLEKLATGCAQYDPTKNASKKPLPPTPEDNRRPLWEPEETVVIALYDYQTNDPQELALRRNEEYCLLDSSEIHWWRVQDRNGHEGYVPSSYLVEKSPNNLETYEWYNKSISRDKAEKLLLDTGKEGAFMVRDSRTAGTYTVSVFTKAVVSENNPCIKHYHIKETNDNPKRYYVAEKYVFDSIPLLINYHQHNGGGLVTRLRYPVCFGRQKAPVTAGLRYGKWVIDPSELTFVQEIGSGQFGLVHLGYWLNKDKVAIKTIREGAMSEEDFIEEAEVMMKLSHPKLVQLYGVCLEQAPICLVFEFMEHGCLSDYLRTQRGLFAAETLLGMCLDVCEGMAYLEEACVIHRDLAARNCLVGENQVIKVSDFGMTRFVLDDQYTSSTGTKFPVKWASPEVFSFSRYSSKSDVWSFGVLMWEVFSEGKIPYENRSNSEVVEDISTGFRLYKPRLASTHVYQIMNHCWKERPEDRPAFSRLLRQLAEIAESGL
The assay is described as follows: Inhibition of human ITK at 1.82 nM by HotSpot assay relative to control.

Assay [5] has as its target Tyrosine-protein kinase Lyn (Homo sapiens) (UniProt P07948). As to the kind of experiment: Inhibition of human LYN B at 1.82 nM by HotSpot assay relative to control.
For assay [6], the target named is MAP kinase-activated protein kinase 2 (Homo sapiens) (UniProt P49137). As to the kind of experiment: Inhibition of human MAPKAPK2 at 1.82 nM by HotSpot assay relative to control.
The target of assay [7] is Dual specificity mitogen-activated protein kinase kinase 2 (Homo sapiens) (UniProt P36507). As to the kind of experiment: Inhibition of human MEK2 at 1.82 nM by HotSpot assay relative to control.
Assay [8] deals with Serine/threonine-protein kinase 24 (Homo sapiens) (UniProt Q9Y6E0). As to the kind of experiment: Inhibition of human STK24 at 1.82 nM by HotSpot assay relative to control.
Assay [9] deals with Mitogen-activated protein kinase 11 (Homo sapiens) (UniProt Q15759). As to the kind of experiment: Inhibition of human MAPK11 at 1.82 nM by HotSpot assay relative to control.
The target in assay [10] is Serine/threonine-protein kinase PLK3 (Homo sapiens) (UniProt Q9H4B4). The assay is described as follows: Inhibition of human PLK3 at 1.82 nM by HotSpot assay relative to control.
The target of assay [11] is Tyrosine-protein kinase Lyn (Homo sapiens) (UniProt P07948). The assay is described as follows: Inhibition of human LYN at 18.6 nM by HotSpot assay relative to control.
In assay [12] the target is T3, Serine/threonine-protein kinase D3 (Homo sapiens) (UniProt O94806).
T3 sequence (whole entry): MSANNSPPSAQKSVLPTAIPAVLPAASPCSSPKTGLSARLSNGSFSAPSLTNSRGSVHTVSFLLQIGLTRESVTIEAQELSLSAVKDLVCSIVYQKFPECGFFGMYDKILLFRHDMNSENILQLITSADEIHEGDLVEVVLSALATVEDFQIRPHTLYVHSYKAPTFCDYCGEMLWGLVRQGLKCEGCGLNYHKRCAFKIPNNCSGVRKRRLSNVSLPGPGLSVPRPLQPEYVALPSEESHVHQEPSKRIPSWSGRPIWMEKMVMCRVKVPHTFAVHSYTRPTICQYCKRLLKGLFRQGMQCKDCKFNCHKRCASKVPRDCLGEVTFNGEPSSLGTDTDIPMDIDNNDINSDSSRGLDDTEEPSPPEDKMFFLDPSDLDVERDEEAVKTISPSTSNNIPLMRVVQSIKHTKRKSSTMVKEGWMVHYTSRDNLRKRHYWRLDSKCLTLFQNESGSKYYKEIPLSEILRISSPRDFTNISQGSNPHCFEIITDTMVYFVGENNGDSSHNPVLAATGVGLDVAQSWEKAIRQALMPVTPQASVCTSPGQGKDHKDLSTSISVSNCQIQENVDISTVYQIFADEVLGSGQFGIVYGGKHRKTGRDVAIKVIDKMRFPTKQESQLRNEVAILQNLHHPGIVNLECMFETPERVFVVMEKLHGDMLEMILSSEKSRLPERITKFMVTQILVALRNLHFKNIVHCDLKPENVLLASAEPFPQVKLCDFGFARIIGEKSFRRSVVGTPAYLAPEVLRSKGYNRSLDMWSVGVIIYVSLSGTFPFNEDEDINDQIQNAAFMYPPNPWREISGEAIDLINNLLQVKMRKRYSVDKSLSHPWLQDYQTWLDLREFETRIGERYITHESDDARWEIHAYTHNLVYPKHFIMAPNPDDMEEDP
As to the kind of experiment: Inhibition of human PRKD3 at 18.6 nM by HotSpot assay relative to control.

Experimental findings from ChEMBL document CHEMBL5653615 (J Biol Chem, 2013) are described below.

Sequence of Tyrosine-protein kinase Lyn (Homo sapiens) (P07948 2-512 limits assumed): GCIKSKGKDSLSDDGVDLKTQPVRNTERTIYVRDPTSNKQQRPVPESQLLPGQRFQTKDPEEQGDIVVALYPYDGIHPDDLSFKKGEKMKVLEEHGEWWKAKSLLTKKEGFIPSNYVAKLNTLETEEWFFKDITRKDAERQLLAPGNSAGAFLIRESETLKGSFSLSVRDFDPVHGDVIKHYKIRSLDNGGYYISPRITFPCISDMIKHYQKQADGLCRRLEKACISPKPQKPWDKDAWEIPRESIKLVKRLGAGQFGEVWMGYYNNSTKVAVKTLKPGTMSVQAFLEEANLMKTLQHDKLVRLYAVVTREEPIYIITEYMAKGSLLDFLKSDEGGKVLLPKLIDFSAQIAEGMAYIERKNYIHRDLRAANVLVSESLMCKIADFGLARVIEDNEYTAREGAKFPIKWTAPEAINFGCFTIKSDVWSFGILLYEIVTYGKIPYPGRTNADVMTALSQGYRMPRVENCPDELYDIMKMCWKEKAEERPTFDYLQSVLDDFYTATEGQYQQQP
Sequence of Dual specificity mitogen-activated protein kinase kinase 2 (Homo sapiens) (P36507 whole entry): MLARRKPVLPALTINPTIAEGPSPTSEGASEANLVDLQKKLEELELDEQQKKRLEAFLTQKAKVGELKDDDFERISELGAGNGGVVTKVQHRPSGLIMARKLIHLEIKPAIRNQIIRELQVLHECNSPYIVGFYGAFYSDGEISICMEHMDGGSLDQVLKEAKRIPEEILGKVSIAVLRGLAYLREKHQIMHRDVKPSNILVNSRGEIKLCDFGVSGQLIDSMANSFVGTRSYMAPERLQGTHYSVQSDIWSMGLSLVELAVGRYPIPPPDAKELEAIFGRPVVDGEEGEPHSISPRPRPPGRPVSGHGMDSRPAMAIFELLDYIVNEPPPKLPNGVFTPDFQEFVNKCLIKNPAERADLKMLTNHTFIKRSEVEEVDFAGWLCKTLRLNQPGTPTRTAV
Sequence of Serine/threonine-protein kinase PLK3 (Homo sapiens) (Q9H4B4 whole entry, looked up): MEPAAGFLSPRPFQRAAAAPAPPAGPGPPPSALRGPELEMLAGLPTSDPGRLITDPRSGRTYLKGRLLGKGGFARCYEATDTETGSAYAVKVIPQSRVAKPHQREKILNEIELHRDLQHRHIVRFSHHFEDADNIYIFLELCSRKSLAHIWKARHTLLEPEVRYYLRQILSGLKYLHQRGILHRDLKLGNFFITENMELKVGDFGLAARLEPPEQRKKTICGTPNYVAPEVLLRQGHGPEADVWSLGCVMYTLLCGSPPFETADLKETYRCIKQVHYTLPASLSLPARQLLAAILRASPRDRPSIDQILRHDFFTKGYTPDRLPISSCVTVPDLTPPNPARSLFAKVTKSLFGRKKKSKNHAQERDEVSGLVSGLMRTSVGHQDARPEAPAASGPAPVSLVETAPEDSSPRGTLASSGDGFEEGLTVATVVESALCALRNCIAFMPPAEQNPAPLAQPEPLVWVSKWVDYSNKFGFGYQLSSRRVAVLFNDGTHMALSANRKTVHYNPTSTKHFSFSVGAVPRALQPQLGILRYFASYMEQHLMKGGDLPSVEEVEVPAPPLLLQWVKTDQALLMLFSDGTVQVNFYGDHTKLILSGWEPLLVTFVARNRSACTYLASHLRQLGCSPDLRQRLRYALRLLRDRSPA
Sequence of Mitogen-activated protein kinase 11 (Homo sapiens) (Q15759 whole entry): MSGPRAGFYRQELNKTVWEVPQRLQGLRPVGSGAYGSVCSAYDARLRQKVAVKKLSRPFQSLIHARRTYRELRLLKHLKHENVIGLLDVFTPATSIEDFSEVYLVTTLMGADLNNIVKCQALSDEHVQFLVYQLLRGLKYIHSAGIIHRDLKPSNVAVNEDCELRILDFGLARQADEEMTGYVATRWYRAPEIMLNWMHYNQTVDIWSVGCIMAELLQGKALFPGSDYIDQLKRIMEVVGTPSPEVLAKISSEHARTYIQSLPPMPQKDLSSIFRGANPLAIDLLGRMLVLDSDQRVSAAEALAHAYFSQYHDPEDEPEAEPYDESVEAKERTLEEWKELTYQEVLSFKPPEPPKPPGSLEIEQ
Sequence of Serine/threonine-protein kinase 24 (Homo sapiens) (Q9Y6E0 whole entry, looked up): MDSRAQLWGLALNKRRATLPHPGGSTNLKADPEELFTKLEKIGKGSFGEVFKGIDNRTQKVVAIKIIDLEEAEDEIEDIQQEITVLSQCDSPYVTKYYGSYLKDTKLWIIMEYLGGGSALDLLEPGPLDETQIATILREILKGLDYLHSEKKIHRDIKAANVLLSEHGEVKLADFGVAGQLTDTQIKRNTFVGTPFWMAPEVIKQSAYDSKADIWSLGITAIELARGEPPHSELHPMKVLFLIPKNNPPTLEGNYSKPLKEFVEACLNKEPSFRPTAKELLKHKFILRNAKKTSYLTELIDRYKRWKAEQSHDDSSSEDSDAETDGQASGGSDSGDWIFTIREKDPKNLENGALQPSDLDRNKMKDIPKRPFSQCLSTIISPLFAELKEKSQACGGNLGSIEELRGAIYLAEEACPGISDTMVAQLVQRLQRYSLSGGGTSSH
Sequence of Insulin receptor-related protein (Homo sapiens) (P14616 27-742 limits assumed): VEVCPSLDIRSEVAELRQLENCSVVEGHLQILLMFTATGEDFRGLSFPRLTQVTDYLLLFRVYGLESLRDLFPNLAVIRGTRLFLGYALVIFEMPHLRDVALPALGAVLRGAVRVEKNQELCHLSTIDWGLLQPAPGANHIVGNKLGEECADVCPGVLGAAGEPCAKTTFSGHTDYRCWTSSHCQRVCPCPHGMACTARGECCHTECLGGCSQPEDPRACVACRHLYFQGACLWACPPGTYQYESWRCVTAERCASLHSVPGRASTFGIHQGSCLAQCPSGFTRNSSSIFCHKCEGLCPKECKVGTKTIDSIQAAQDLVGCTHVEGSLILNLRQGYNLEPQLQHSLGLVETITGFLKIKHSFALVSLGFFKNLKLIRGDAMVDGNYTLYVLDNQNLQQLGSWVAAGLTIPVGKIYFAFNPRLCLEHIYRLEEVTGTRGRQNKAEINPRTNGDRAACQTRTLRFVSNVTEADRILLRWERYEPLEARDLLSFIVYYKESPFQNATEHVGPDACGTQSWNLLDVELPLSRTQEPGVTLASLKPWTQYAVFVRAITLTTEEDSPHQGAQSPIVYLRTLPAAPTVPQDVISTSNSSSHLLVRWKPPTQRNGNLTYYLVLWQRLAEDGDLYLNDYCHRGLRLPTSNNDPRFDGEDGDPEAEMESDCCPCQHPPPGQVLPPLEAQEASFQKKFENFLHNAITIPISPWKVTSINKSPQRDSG
Sequence of Insulin receptor-related protein (Homo sapiens) (P14616 747-1297 limits assumed): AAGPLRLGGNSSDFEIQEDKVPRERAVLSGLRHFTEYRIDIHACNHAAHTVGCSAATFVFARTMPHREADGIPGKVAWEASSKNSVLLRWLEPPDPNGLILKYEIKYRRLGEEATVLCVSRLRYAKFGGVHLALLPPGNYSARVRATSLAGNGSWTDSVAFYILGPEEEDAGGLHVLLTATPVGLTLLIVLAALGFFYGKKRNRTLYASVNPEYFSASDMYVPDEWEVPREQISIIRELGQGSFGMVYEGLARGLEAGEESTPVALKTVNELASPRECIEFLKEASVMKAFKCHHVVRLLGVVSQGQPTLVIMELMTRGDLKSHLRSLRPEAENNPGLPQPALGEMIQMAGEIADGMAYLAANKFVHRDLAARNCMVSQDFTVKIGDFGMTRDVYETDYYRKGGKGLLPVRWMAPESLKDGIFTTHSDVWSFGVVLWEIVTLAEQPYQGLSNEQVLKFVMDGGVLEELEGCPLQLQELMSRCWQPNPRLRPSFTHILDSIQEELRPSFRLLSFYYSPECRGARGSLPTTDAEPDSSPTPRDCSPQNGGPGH
Sequence of Tyrosine-protein kinase BTK (Homo sapiens) (Q06187 whole entry): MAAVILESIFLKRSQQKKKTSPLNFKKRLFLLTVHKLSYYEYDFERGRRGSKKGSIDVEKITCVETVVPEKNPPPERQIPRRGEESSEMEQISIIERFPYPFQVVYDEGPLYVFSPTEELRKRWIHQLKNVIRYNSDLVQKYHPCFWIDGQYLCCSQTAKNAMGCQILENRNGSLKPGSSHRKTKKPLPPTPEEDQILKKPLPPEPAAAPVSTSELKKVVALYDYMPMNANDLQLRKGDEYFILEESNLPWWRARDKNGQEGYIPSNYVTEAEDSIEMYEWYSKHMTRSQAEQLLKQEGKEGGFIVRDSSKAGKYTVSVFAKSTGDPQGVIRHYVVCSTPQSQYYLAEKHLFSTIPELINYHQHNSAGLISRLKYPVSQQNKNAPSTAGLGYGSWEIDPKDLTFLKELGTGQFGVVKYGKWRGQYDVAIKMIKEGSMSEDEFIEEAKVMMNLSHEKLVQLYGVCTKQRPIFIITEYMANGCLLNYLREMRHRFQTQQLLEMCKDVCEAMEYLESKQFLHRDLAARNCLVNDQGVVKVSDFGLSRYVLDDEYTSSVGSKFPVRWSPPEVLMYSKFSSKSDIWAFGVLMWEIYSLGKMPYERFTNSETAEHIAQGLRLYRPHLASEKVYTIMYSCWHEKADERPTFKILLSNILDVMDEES
Sequence of MAP kinase-activated protein kinase 2 (Homo sapiens) (P49137 whole entry, looked up): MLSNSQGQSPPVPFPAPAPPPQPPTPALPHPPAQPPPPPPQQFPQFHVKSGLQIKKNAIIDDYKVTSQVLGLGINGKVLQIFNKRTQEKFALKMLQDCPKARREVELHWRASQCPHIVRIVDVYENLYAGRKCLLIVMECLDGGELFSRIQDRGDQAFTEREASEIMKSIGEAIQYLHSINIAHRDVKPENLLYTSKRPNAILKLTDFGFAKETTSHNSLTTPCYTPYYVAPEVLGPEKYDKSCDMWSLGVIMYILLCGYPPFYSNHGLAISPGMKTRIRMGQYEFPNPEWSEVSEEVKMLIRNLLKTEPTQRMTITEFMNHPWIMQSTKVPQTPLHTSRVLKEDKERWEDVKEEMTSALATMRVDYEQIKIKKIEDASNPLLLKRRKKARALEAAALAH

The inhibition is the change of the read-out against control, counted positive when it falls. Consider `C[C@@]1(C(=O)Nc2ccc(F)nc2)CCCN1c1nc(Nc2cc(C3CC3)n[nH]2)c2cccn2n1`, for which the inhibition in [1] was 4.42%; in [2], -4.39%; in assay [3] it was 33.5%; in assay [4], -7.19%; in assay [5], 2.74%; in [6] it was 0.98%. Besides, the inhibition is 1.78% in assay [7], 2.42% in assay [8], -1.71% in assay [9] and 2.72% in [10].
Consider `C[C@]1(O)C[C@@H](c2nc(-c3ccc4ccc(-c5ccccc5)nc4c3)c3c(N)nccn32)C1`, for which the inhibition in [11] was -0.99%; in [12], 9.14%.
